# From ChEMBL document CHEMBL3508140 (2016)
# Experiments:
# [1] = Plasma clearance of carminomycin following intravenous carminomycin at 1.0 mg.Kg-1 dose in dog; type: ADME, organism-based, Canis lupus familiaris; parameters: dose 1 mg.Kg-1, dosed compound id 2.46809e+06, dosed compound name Carminomycin, route intravenous; conditions: Beagle, read-out: Clp
# [2] = Terminal half-life of carminomycin following intravenous carminomycin at 1.0 mg.Kg-1 dose in dog; type: ADME, organism-based, Canis lupus familiaris; parameters: dose 1 mg.Kg-1, dosed compound id 2.46809e+06, dosed compound name Carminomycin, route intravenous; conditions: Beagle, plasma
# [3] = Volume of distribution of carminomycin following intravenous carminomycin at 1.0 mg.Kg-1 dose in dog; type: ADME, organism-based, Canis lupus familiaris; parameters: dose 1 mg.Kg-1, dosed compound id 2.46809e+06, dosed compound name Carminomycin, route intravenous; conditions: Beagle, plasma
# [4] = AUC values (0-48 h) of 7-deoxy doxorubicin-aglycone in heart following single intravenous doxorubicin at 10 mg.Kg-1 dose in female mouse bearing colon tumor; type: ADME, organism-based, BALB/c; parameters: time < 48 hr, dose 10 mg.Kg-1, dosed compound id 2.46809e+06, dosed compound name Doxorubicin, gender F, regimen Single, route intravenous, sampling time 48 h; conditions: in vivo
# [5] = AUC values (0-48 h) of 7-deoxy doxorubicin-aglycone in tumor following single intravenous doxorubicin at 10 mg.Kg-1 dose in female mouse bearing colon tumor; type: ADME, organism-based, BALB/c, Neoplasm; parameters: time < 48 hr, dose 10 mg.Kg-1, dosed compound id 2.46809e+06, dosed compound name Doxorubicin, gender F, regimen Single, route intravenous, sampling time 48 h; conditions: in vivo
# [6] = Recovery of 7-deoxy epirubicinol aglycone following intravenous epirubicin at 1.5 mg.Kg-1 dose in man; type: ADME, organism-based, Plasma; conditions: human, in vivo
# [7] = Detection of 7-deoxydoxorubicinol aglycone in plasma following single intravenous doxorubicin at 10 mg.Kg-1 dose in female mouse bearing colon tumor; type: ADME, organism-based, BALB/c; parameters: dose 10 mg.Kg-1, dosed compound id 2.46809e+06, dosed compound name Doxorubicin, gender F, regimen Single, route intravenous, sampling time 48 h; conditions: in vivo
# [8] = Detection of 7-deoxydoxorubicinol aglycone in tumor following single intravenous epirubicin at 10 mg.Kg-1 dose in female mouse bearing colon tumor; type: ADME, organism-based, BALB/c, Neoplasm; conditions: in vivo
# [9] = Detection of 7-deoxydoxorubicinol aglycone in heart following single intravenous epirubicin at 10 mg.Kg-1 dose in female mouse bearing colon tumor; type: ADME, organism-based, BALB/c; conditions: in vivo
# [10] = AUC values (0-48 h) of 7-deoxy epirubicinol aglycone in plasma following single intravenous epirubicin at 10 mg.Kg-1 dose in female mouse bearing colon tumor; type: ADME, organism-based, BALB/c; conditions: in vivo
# [11] = Detection of 7-deoxydoxorubicinol aglycone in heart following single intravenous doxorubicin at 10 mg.Kg-1 dose in female mouse bearing colon tumor; type: ADME, organism-based, BALB/c; parameters: dose 10 mg.Kg-1, dosed compound id 2.46809e+06, dosed compound name Doxorubicin, gender F, regimen Single, route intravenous, sampling time 48 h; conditions: in vivo
# [12] = AUC values (0-48 h) of 7-deoxy epirubicinol aglycone in tumor following single intravenous epirubicin at 10 mg.Kg-1 dose in female mouse bearing colon tumor; type: ADME, organism-based, BALB/c, Neoplasm; conditions: in vivo
# [13] = Recovery of 7-deoxy epirubicinol aglycone following intraperitoneal epirubicin at 4 mg.Kg-1 dose in hamster; type: ADME, organism-based, Cricetulus griseus, Plasma; conditions: chinese hamster, in vivo, ip
# [14] = Recovery of 7-deoxy epirubicinol aglycone following intravenous epirubicin at 4 mg.Kg-1 dose in rat; type: ADME, organism-based, SD, Plasma; conditions: in vivo
# [15] = Recovery of 7-deoxy epirubicinol aglycone following intravenous epirubicin at 4 mg.Kg-1 dose in rabbit; type: ADME, organism-based, Oryctolagus cuniculus, New Zealand White, Plasma; conditions: in vivo
# [16] = Recovery of 7-deoxy epirubicinol aglycone following intraperitoneal epirubicin at 4 mg.Kg-1 dose in mouse; type: ADME, organism-based, CD-1, Plasma; conditions: in vivo, ip
# [17] = Detection of 7-deoxydoxorubicinol aglycone in plasma following single intravenous epirubicin at 10 mg.Kg-1 dose in female mouse bearing colon tumor; type: ADME, organism-based, BALB/c; conditions: in vivo
# [18] = AUC values (0-48 h) of 7-deoxy epirubicinol aglycone in heart following single intravenous epirubicin at 10 mg.Kg-1 dose in female mouse bearing colon tumor; type: ADME, organism-based, BALB/c; conditions: in vivo
# [19] = AUC values (0-48 h) of 7-deoxy doxorubicin-aglycone in plasma following single intravenous doxorubicin at 10 mg.Kg-1 dose in female mouse bearing colon tumor; type: ADME, organism-based, BALB/c; parameters: time < 48 hr, dose 10 mg.Kg-1, dosed compound id 2.46809e+06, dosed compound name Doxorubicin, gender F, regimen Single, route intravenous, sampling time 48 h; conditions: in vivo
# [20] = Detection of 7-deoxydoxorubicinol aglycone in tumor following single intravenous doxorubicin at 10 mg.Kg-1 dose in female mouse bearing colon tumor; type: ADME, organism-based, BALB/c, Neoplasm; parameters: dose 10 mg.Kg-1, dosed compound id 2.46809e+06, dosed compound name Doxorubicin, gender F, regimen Single, route intravenous, sampling time 48 h; conditions: in vivo
# Canis lupus familiaris [21] = species: Canis lupus familiaris; test: Binding of 14C-epirubicin at 500 ng.ml-1 concentration to plasma protein of dog; type: cell-free; conditions: Beagle
# Oryctolagus cuniculus [22] = species: Oryctolagus cuniculus; test: Binding of 14C-epirubicin at 500 ng.ml-1 concentration to plasma protein of rabbit; type: cell-free; conditions: New Zealand White
# Canis lupus familiaris [23] = species: Canis lupus familiaris; test: Binding of 14C-epirubicin at 20 ng.ml-1 concentration to plasma protein of dog; type: cell-free; conditions: Beagle
# Oryctolagus cuniculus [24] = species: Oryctolagus cuniculus; test: Binding of 14C-epirubicin at 1000 ng.ml-1 concentration to plasma protein of rabbit; type: cell-free; conditions: New Zealand White
# Homo sapiens [25] = species: Homo sapiens; test: Binding of epirubicin at 20-1000 ng.ml-1 concentration to plasma protein of human; type: cell-free
# Canis lupus familiaris [26] = species: Canis lupus familiaris; test: Binding of 14C-epirubicin at 100 ng.ml-1 concentration to plasma protein of dog; type: cell-free; conditions: Beagle
# Oryctolagus cuniculus [27] = species: Oryctolagus cuniculus; test: Binding of 14C-epirubicin at 20 ng.ml-1 concentration to plasma protein of rabbit; type: cell-free; conditions: New Zealand White
# Homo sapiens [28] = species: Homo sapiens; test: Binding of epirubicin to plasma protein of human; type: cell-free
# Mus musculus [29] = species: Mus musculus; test: Binding of 14C-epirubicin at 500 ng.ml-1 concentration to plasma protein of mouse; type: cell-free; conditions: CD-1
# Rattus norvegicus [30] = species: Rattus norvegicus; test: Binding of 14C-epirubicin at 1.081 ug-ml-1 concentration to plasma protein of rat; type: cell-free; parameters: conc 1.081 ug.ml-1; conditions: SD, at 1.081 µg/mL
# Rattus norvegicus [31] = species: Rattus norvegicus; test: Binding of 14C-epirubicin at 0.164 ug-ml-1 concentration to plasma protein of rat; type: organism-based; parameters: conc 0.164 ug.ml-1, dosed compound id 2.46808e+06, dosed compound name, sampling time 30 min; conditions: SD, at 0.164 µg/mL
# Homo sapiens [32] = species: Homo sapiens; test: Binding of 14C-epirubicin at 500 ng.ml-1 concentration to plasma protein of man; type: cell-free; parameters: gender
# Mus musculus [33] = species: Mus musculus; test: Binding of 14C-epirubicin at 20 ng.ml-1 concentration to plasma protein of mouse; type: cell-free; conditions: CD-1
# Rattus norvegicus [34] = species: Rattus norvegicus; test: Binding of 14C-epirubicin at 0.077 ug-ml-1 concentration to plasma protein of rat; type: organism-based; parameters: conc 0.077 ug.ml-1, dosed compound id 2.46808e+06, dosed compound name, sampling time 6 h; conditions: SD, at 0.077 µg/mL
# Rattus norvegicus [35] = species: Rattus norvegicus; test: Binding of 14C-epirubicin at 100 ng.ml-1 concentration to plasma protein of rat; type: cell-free; conditions: SD
# Rattus norvegicus [36] = species: Rattus norvegicus; test: Binding of 14C-epirubicin at 20 ng.ml-1 concentration to plasma protein of rat; type: cell-free; conditions: SD
# Mus musculus [37] = species: Mus musculus; test: Binding of 14C-epirubicin at 100 ng.ml-1 concentration to plasma protein of mouse; type: cell-free; conditions: CD-1
# Oryctolagus cuniculus [38] = species: Oryctolagus cuniculus; test: Binding of 14C-epirubicin at 100 ng.ml-1 concentration to plasma protein of rabbit; type: cell-free; conditions: New Zealand White
# Homo sapiens [39] = species: Homo sapiens; test: Binding of 14C-epirubicin at 1000 ng.ml-1 concentration to plasma protein of man; type: cell-free; parameters: gender
# Rattus norvegicus [40] = species: Rattus norvegicus; test: Binding of 14C-epirubicin at 0.223 ug-ml-1 concentration to plasma protein of rat; type: cell-free; parameters: conc 0.223 ug.ml-1; conditions: SD, at 0.223 µg/mL
# Rattus norvegicus [41] = species: Rattus norvegicus; test: Binding of 14C-epirubicin at 0.048 ug-ml-1 concentration to plasma protein of rat; type: organism-based; parameters: conc 0.048 ug.ml-1, dosed compound id 2.46808e+06, dosed compound name, sampling time 24 h; conditions: SD, at 0.048 µg/mL
# Rattus norvegicus [42] = species: Rattus norvegicus; test: Binding of 14C-epirubicin at 500 ng.ml-1 concentration to plasma protein of rat; type: cell-free; conditions: SD
# Homo sapiens [43] = species: Homo sapiens; test: Binding of 14C-epirubicin at 100 ng.ml-1 concentration to plasma protein of man; type: cell-free; parameters: gender
# Rattus norvegicus [44] = species: Rattus norvegicus; test: Binding of 14C-epirubicin at 1000 ng.ml-1 concentration to plasma protein of rat; type: cell-free; conditions: SD
# Mus musculus [45] = species: Mus musculus; test: Binding of 14C-epirubicin at 1000 ng.ml-1 concentration to plasma protein of mouse; type: cell-free; conditions: CD-1
# Rattus norvegicus [46] = species: Rattus norvegicus; test: Binding of 14C-epirubicin at 0.056 ug-ml-1 concentration to plasma protein of rat; type: cell-free; parameters: conc 0.056 ug.ml-1; conditions: SD, at 0.056 µg/mL
# Canis lupus familiaris [47] = species: Canis lupus familiaris; test: Binding of 14C-epirubicin at 1000 ng.ml-1 concentration to plasma protein of dog; type: cell-free; conditions: Beagle
smiles,measurement,setting,value
CC(=O)[C@]1(O)Cc2c(O)c3c(c(O)c2[C@@H](O[C@H]2C[C@H](N)[C@H](O)[C@H](C)O2)C1)C(=O)c1c(O)cccc1C3=O [CARUBICIN],clearance,[1],1360 mL/min
same,half-life,[2],20.3 min
same,Vd,[3],98.5 L/kg
COc1cccc2c1C(=O)c1c(O)c3c(c(O)c1C2=O)C[C@@](O)(C(O)CO)CC3 (some centres not stated),AUC,[4],218 nmol·min/g
same,AUC,[5],204 nmol·min/g
same,Compound recovery,[6],25 10^-9M
same,Compound recovery,[7],OUTCOME = Observed
same,Compound recovery,[8],OUTCOME = Observed
same,Compound recovery,[9],OUTCOME = Observed
same,AUC,[10],53.9 nmol·min/mL
same,Compound recovery,[11],OUTCOME = Observed
same,AUC,[12],99 nmol·min/g
same,Compound recovery,[13],21 10^-9M
same,Compound recovery,[14],4.2 10^-9M
same,Compound recovery,[15],4.2 10^-9M
same,Compound recovery,[16],20 10^-9M
same,Compound recovery,[17],OUTCOME = Observed
same,AUC,[18],66 nmol·min/g
same,AUC,[19],83.3 nmol·min/mL
same,Compound recovery,[20],OUTCOME = Observed
COc1cccc2c1C(=O)c1c(O)c3c(c(O)c1C2=O)C[C@@](O)(C(=O)CO)C[C@@H]3O[C@H]1C[C@H](N)[C@@H](O)[C@H](C)O1,PPB,Canis lupus familiaris [21],80.7%
same,PPB,Oryctolagus cuniculus [22],78.4%
same,PPB,Canis lupus familiaris [23],80.3%
same,PPB,Oryctolagus cuniculus [24],77.1%
same,PPB,Homo sapiens [25],77%
same,PPB,Canis lupus familiaris [26],81.2%
same,PPB,Oryctolagus cuniculus [27],78.5%
same,PPB,Homo sapiens [28],75%
same,PPB,Mus musculus [29],80%
same,PPB,Rattus norvegicus [30],82.2%
same,PPB,Rattus norvegicus [31],80.7%
same,PPB,Homo sapiens [32],77.3%
same,PPB,Mus musculus [33],76.5%
same,PPB,Rattus norvegicus [34],85.6%
same,PPB,Rattus norvegicus [35],82.8%
same,PPB,Rattus norvegicus [36],79.1%
same,PPB,Mus musculus [37],79.9%
same,PPB,Oryctolagus cuniculus [38],70.2%
same,PPB,Homo sapiens [39],76.8%
same,PPB,Rattus norvegicus [40],81%
same,PPB,Rattus norvegicus [41],88.2%
same,PPB,Rattus norvegicus [42],81.3%
same,PPB,Homo sapiens [43],78.1%
same,PPB,Rattus norvegicus [44],78.7%
same,PPB,Mus musculus [45],80.3%
same,PPB,Rattus norvegicus [46],81.7%
same,PPB,Canis lupus familiaris [47],80.9%
